Measured values: US8765733B2, “Amine substituted methanesulfonamide derivatives as vanilloid receptor ligands” (Gruenenthal GmbH, priority 2011, dated 2014)

Target: vanilloid receptor 1 (VR1/TRPV1 receptor) (Homo sapiens, UniProt Q8NER1)
Test: FLIPR functional assay (Ca2+ influx, capsaicin) on the vanilloid receptor 1
Type: cell-based
Conditions: capsaicin (Cap) stimulus; for inhibition at 5 µM: compound at 5 μM, read-out: inhibition (as a percentage) Cap, (human being); for Ki: functional (f), Ki from IC50 by Cheng-Prusoff, read-out: (f) Ki (human being) [nM] Cap

| inhibition at 5 µM | Ki | SMILES |
| --- | --- | --- |
| 48% |  | CC(C(=O)NCc1ccc(C(F)(F)F)nc1N1CCCC1)c1cccc(CNS(C)(=O)=O)c1 (centres unmarked) [Example 2, 2-(3-(methylsulfonamidomethyl)phenyl)-N-((2-(pyrrolidin-1-yl)-6-(trifluoromethyl)pyridin-3-yl)methyl)propanamide] |
|  | 26 nM | CS(=O)(=O)NCc1ccc(NC(=O)NCc2ccc(C(F)(F)F)nc2N2CCCC2)cc1 [Example 4, N-(4-(3-((2-(pyrrolidin-1-yl)-6-(trifluoromethyl)pyridin-3-yl)methyl)ureido)benzyl)methanesulfonamide] |
|  | 4 nM | CC1CCN(c2nc(C(F)(F)F)ccc2CNC(=O)Nc2ccc(CNS(C)(=O)=O)cc2)CC1 [Example 5, N-(4-(3-((2-(4-methylpiperidin-1-yl)-6-(trifluoromethyl)pyridin-3-yl)methyl)ureido)benzyl)methanesulfonamide] |
|  | 11 nM | CC1CCN(c2nc(C(F)(F)F)ccc2CNC(=O)C(C)c2ccc(CNS(C)(=O)=O)cc2)CC1 (centres unmarked) [Example 6, N-((2-(4-methylpiperidin-1-yl)-6-(trifluoromethyl)pyridin-3-yl)methyl)-2-(4-(methylsulfonamidomethyl)phenyl)propanamide] |
| 71% |  | CCNc1nc(C(F)(F)F)ccc1CNC(=O)C(C)c1ccc(CNS(C)(=O)=O)c(F)c1 (centres unmarked) [Example 8, N-((2-(ethylamino)-6-(trifluoromethyl)pyridin-3-yl)methyl)-2-(3-fluoro-4-(methylsulfonamidomethyl)phenyl)propanamide] |
|  | 95 nM | CCCCNc1nc(C(F)(F)F)ccc1CNC(=O)C(C)c1ccc(CNS(C)(=O)=O)c(F)c1 (centres unmarked) [Example 9, N-((2-(butylamino)-6-(trifluoromethyl)pyridin-3-yl)methyl)-2-(3-fluoro-4-(methylsulfonamidomethyl)phenyl)propanamide] |
| 46% |  | COC1CN(c2nc(C(F)(F)F)ccc2CNC(=O)C(C)c2ccc(CNS(C)(=O)=O)c(F)c2)C1 (centres unmarked) [Example 14, 2-(3-fluoro-4-(methylsulfonamidomethyl)phenyl)-N-((2-(3-methoxyazetidin-1-yl)-6-(trifluoromethyl)pyridin-3-yl)methyl)propanamide] |
|  | 23 nM | CC(C(=O)NCc1ccc(C(F)(F)F)nc1N1CCCC1)c1ccc(CNS(C)(=O)=O)c(F)c1 (centres unmarked) [Example 17, 2-(3-fluoro-4-(methylsulfonamidomethyl)phenyl)-N-((2-(pyrrolidin-1-yl)-6-(trifluoromethyl)pyridin-3-yl)methyl)propanamide] |
|  | 5 nM | CC(C(=O)NCc1ccc(C(F)(F)F)nc1N1CCCCC1)c1ccc(CNS(C)(=O)=O)c(F)c1 (centres unmarked) [Example 21, 2-(3-fluoro-4-(methylsulfonamidomethyl)phenyl)-N-((2-(piperidin-1-yl)-6-(trifluoromethyl)pyridin-3-yl)methyl)propanamide] |
|  | 5 nM | CC1CCN(c2nc(C(F)(F)F)ccc2CNC(=O)Nc2ccc(CNS(C)(=O)=O)c(F)c2)CC1 [Example 24, N-(2-fluoro-4-(3-((2-(4-methylpiperidin-1-yl)-6-(trifluoromethyl)pyridin-3-yl)methyl)ureido)benzyl)methanesulfonamide] |
|  | 4 nM | CC1CCN(c2nc(C(F)(F)F)ccc2CNC(=O)Cc2ccc(CNS(C)(=O)=O)c(F)c2)CC1 [Example 25] |
|  | 5 nM | CC1CCN(c2nc(C(C)(C)C)ccc2CNC(=O)C(C)c2ccc(CNS(C)(=O)=O)c(F)c2)CC1 (centres unmarked) [Example 28, N-((6-tert-butyl-2-(4-methylpiperidin-1-yl)pyridin-3-yl)methyl)-2-(3-fluoro-4-(methylsulfonamidomethyl)phenyl)propanamide] |
|  | 5 nM | CC1CCN(c2cc(C(F)(F)F)ccc2CNC(=O)C(C)c2ccc(CNS(C)(=O)=O)c(F)c2)CC1 (centres unmarked) [Example 29, 2-(3-fluoro-4-(methylsulfonamidomethyl)phenyl)-N-(2-(4-methylpiperidin-1-yl)-4-(trifluoromethyl)benzyl)propanamide] |
|  | 8 nM | CC1CCN(c2nc(C(F)(F)F)ccc2CNC(=O)C(C)c2ccc(CNS(C)(=O)=O)c(F)c2)CC1 (centres unmarked) [Example 30, 2-(3-fluoro-4-(methylsulfonamidomethyl)phenyl)-N-((2-(4-methylpiperidin-1-yl)-6-(trifluoromethyl)pyridin-3-yl)methyl)propanamide] |
|  | 61 nM | CC(C(=O)NCc1ccc(C(F)(F)F)nc1N1CCC(c2ccccc2)(N(C)C)CC1)c1ccc(CNS(C)(=O)=O)c(F)c1 (centres unmarked) [Example 34, N-((2-(4-(dimethylamino)-4-phenylpiperidin-1-yl)-6-(trifluoromethyl)pyridin-3-yl)methyl)-2-(3-fluoro-4-(methylsulfonamidomethyl)phenyl)propanamide] |
| 53% |  | CC(C(=O)NCc1ccc(C(F)(F)F)nc1N1CCOCC1)c1ccc(CNS(C)(=O)=O)c(F)c1 (centres unmarked) [Example 35, 2-(3-fluoro-4-(methylsulfonamidomethyl)phenyl)-N-((2-morpholino-6-(trifluoromethyl)pyridin-3-yl)methyl)propanamide] |
|  | 80 nM | CC(C(=O)NCc1ccc(C(F)(F)F)nc1N1CCCC1)c1ccc(CNS(C)(=O)=O)c(Cl)c1 (centres unmarked) [Example 45, 2-(3-chloro-4-(methylsulfonamidomethyl)phenyl)-N-((2-(pyrrolidin-1-yl)-6-(trifluoromethyl)pyridin-3-yl)methyl)propanamide] |
|  | 5 nM | CC1CCN(c2nc(C(F)(F)F)ccc2CNC(=O)C(C)c2ccc(CNS(C)(=O)=O)c(Cl)c2)CC1 (centres unmarked) [Example 46, 2-(3-chloro-4-(methylsulfonamidomethyl)phenyl)-N-((2-(4-methylpiperidin-1-yl)-6-(trifluoromethyl)pyridin-3-yl)methyl)propanamide] |
|  | 6 nM | CC1CCN(c2nc(C(F)(F)F)ccc2CNC(=O)Nc2ccc(CNS(C)(=O)=O)c(O)c2)CC1 [Example 47, N-(2-hydroxy-4-(3-((2-(4-methylpiperidin-1-yl)-6-(trifluoromethyl)pyridin-3-yl)methyl)ureido)benzyl)methanesulfonamide] |
|  | 87 nM | COc1cc(C(C)C(=O)NCc2ccc(C(F)(F)F)nc2N2CCCC2)ccc1CNS(C)(=O)=O (centres unmarked) [Example 48, 2-(3-methoxy-4-(methylsulfonamidomethyl)phenyl)-N-((2-(pyrrolidin-1-yl)-6-(trifluoromethyl)pyridin-3-yl)methyl)propanamide] |
|  | 12 nM | COc1cc(NC(=O)NCc2ccc(C(F)(F)F)nc2N2CCC(C)CC2)ccc1CNS(C)(=O)=O [Example 49, N-(2-methoxy-4-(3-((2-(4-methylpiperidin-1-yl)-6-(trifluoromethyl)pyridin-3-yl)methyl)ureido)benzyl)methanesulfonamide] |
|  | 46 nM | Cc1cc(NC(=O)NCc2ccc(C(F)(F)F)nc2N2CCCC2)ccc1CNS(C)(=O)=O [Example 52, N-(2-methyl-4-(3-((2-(pyrrolidin-1-yl)-6-(trifluoromethyl)pyridin-3-yl)methyl)ureido)benzyl)methanesulfonamide] |
|  | 5 nM | Cc1cc(NC(=O)NCc2ccc(C(F)(F)F)nc2N2CCC(C)CC2)ccc1CNS(C)(=O)=O [Example 53, N-(2-methyl-4-(3-((2-(4-methylpiperidin-1-yl)-6-(trifluoromethyl)pyridin-3-yl)methyl)ureido)benzyl)methanesulfonamide] |
